Common to all, as to assay type: cell-based, human
Assay [1] relates to memory CD8+ T cells of convalescent COVID-19 patients; target cells expressing only HLA-A*03:01. As to conditions: share of screened convalescent patients whose memory CD8+ T cells recognised the epitope; allele A*03.
The next assay has as its system OC43 and HKU1. Description: T-Scan screen, reactivity to corresponding epitopes in OC43 and HKU1 ORFeomes. The settings on record: COVID-19 patient memory CD8+ T cells.
The test system of assay [2] is memory CD8+ T cells of convalescent COVID-19 patients; target cells expressing only HLA-A*02:01. The settings on record: of 9 HLA-A*02:01 patients.

Take KCYGVSPTKY: the “% of Pts (Screen)” value in assay [1] amounted to 100%.
For KLWAQCVQL, the “reactivity to corresponding epitopes in OC43 and HKU1” value with OC43 and HKU1 was “do not recognize them”.
As to “ORF1ab aa 3881-3900: 20-aa segment of SARS-CoV-2 ORF1ab recognized in the T-Scan screen”, the “patients in whom epitope or region was identified / recognized” value in assay [2] is listed as 7 of 9.
Still for that read-out and setting: under “S aa 261-280: 20-aa segment of SARS-CoV-2 S protein recognized in the T-Scan screen” stands 7 of 9.
Regarding SPRWYFYYL, in the assay with OC43 and HKU1, the “reactivity to corresponding epitopes in OC43 and HKU1” value is on record as “all four of the patients”.

The values are drawn from patent publication US20230241205A1, “SARS-COV-2 IMMU[…] AND USES THEREOF” (TScan Therapeutics, Inc., priority 2020, published 2023).
